The target in the first assay is T1, PLK1 (Homo sapiens, UniProt P53350).
T1 construct: Full-length, active GST-PLK1 is purified from Sf9 insect cells; made in house; host or cells: Sf9 insect cells
T1 sequence (P53350 whole entry): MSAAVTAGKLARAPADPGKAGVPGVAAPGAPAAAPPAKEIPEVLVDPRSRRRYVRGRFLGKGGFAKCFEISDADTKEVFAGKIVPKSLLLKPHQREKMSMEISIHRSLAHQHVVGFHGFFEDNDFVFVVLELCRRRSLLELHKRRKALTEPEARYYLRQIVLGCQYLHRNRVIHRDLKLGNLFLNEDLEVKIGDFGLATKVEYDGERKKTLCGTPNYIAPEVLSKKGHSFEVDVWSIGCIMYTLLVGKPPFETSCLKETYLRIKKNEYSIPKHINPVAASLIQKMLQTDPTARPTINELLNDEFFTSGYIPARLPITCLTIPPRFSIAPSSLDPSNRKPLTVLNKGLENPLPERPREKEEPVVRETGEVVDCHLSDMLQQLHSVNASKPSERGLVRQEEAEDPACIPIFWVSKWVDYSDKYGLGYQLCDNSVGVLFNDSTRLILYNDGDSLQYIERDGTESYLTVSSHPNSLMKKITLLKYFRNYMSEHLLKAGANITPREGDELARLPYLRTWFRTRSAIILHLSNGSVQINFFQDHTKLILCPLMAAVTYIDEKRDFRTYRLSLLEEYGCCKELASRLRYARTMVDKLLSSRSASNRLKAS
Nature of the assay: Biochemical Characterization Assay: HTRF kinase assay, GST-PLK1 phosphorylation of GST-p53. Conditions: GST-PLK1, GST-p53 substrate. The method in brief:
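Full-length active GST-PLK1 (Sf9, 3 ug/mL) phosphorylated full-length GST-p53 (E. coli) in Kinase Assay Buffer for 35 min at 37 °C. Stopped with EDTA; phospho-p53 detected by HTRF with anti-phospho-p53, Eu-anti-rabbit and APC-anti-GST antibodies.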
Background: In TR-FRET formats the signal depends on donor and acceptor labels being close together.
`COc1cc(C(=O)NC2CCN(CCO)CC2)ccc1Nc1ncc2c(n1)N(C1CCCCC1)CC(F)(F)C(=O)N2C` [Example I-267, 4-(9-cyclohexyl-7,7-difluoro-5-methyl-6-oxo-6,7,8,9-tetrahydro-5H-pyrimido[4,5-b][1,4]diazepin-2-ylamino)-N-[1-(2-hydroxy-ethyl)-piperidin-4-yl]-3-methoxy-benzamide] came in with a half-inhibitory concentration (IC50) of 1 to 50 nM.

In turn, `CN(C)CCNC(=O)c1ccc(Nc2ncc3c(n2)N(C2CCCC2)CC(F)(F)C(=O)N3C)c(F)c1` [Example I-226, 4-(9-cyclopentyl-7,7-difluoro-5-methyl-6-oxo-6,7,8,9-tetrahydro-5H-pyrimido[4,5-b][1,4]diazepin-2-ylamino)-N-(2-dimethylamino-ethyl)-3-fluoro-benzamide] returned a 50% inhibitory concentration (IC50) of 1 to 50 nM.

In the case of `COc1cc(C(=O)NCCCN(C)C)ccc1Nc1ncc2c(n1)N([C@@H]1C[C@H]1c1ccccc1)CC(F)(F)C(=O)N2C` (relative stereo) [Example I-290, 4-[7,7-difluoro-5-methyl-6-oxo-9-(trans-2-phenyl-cyclopropyl)-6,7,8,9-tetrahydro-5H-pyrimido[4,5-b][1,4]diazepin-2-ylamino]-N-(3-dimethylamino-propyl)-3-methoxy-benzamide], the IC50 was 51 to 500 nM.

`COc1cc(C(N)=O)ccc1Nc1ncc2c(n1)N(C1CCCCC1)CC(F)(F)C(=O)N2C` [Example I-248, 4-(9-cyclohexyl-7,7-difluoro-5-methyl-6-oxo-6,7,8,9-tetrahydro-5H-pyrimido[4,5-b][1,4]diazepin-2-ylamino)-3-methoxy-benzamide] displayed a half-maximal inhibitory concentration (IC50) of 1 to 50 nM.

`COc1cc(C(=O)NC2CCOCC2)ccc1Nc1ncc2c(n1)N(CCc1ccccc1)CC(F)(F)C(=O)N2C` [Example I-280, 4-(7,7-difluoro-5-methyl-6-oxo-9-phenethyl-6,7,8,9-tetrahydro-5H-pyrimido[4,5-b][1,4]diazepin-2-ylamino)-3-methoxy-N-(tetrahydro-pyran-4-yl)-benzamide] yielded an IC50 of 51 to 500 nM.

For the compound `CCOc1cc(C(=O)NCCCN(C)C)ccc1Nc1ncc2c(n1)N(C1CCCC1)CC(F)(F)C(=O)N2C` [Example I-219, 4-(9-cyclopentyl-7,7-difluoro-5-methyl-6-oxo-6,7,8,9-tetrahydro-5H-pyrimido[4,5-b][1,4]diazepin-2-ylamino)-N-(3-dimethylamino-propyl)-3-ethoxy-benzamide], the IC50 lay in the range of 1 to 50 nM.

Take `CCOc1cc(C(=O)NC2CCN(C)CC2)ccc1Nc1ncc2c(n1)N(C1CCCC1)CC(F)(F)C(=O)N2C` [Example I-215, 4-(9-cyclopentyl-7,7-difluoro-5-methyl-6-oxo-6,7,8,9-tetrahydro-5H-pyrimido[4,5-b][1,4]diazepin-2-ylamino)-3-ethoxy-N-(1-methyl-piperidin-4-yl)-benzamide]: the IC50 is 1 to 50 nM.

The compound `COc1cc(C(=O)NCCCN(C)C)ccc1Nc1ncc2c(n1)N(CCCc1ccccc1)CC(F)(F)C(=O)N2C` [Example I-285, 4-[7,7-difluoro-5-methyl-6-oxo-9-(3-phenyl-propyl)-6,7,8,9-tetrahydro-5H-pyrimido[4,5-b][1,4]diazepin-2-ylamino]-N-(3-dimethylamino-propyl)-3-methoxy-benzamide] came in with a 50% inhibitory concentration (IC50) of 1 to 50 nM.

As to `CCOc1cc(C(=O)NC2CCN(CC)CC2)ccc1Nc1ncc2c(n1)N(C1CCCC1)CC(F)(F)C(=O)N2C` [Example I-216, 4-(9-cyclopentyl-7,7-difluoro-5-methyl-6-oxo-6,7,8,9-tetrahydro-5H-pyrimido[4,5-b][1,4]diazepin-2-ylamino)-3-ethoxy-N-(1-ethyl-piperidin-4-yl)-benzamide], the half-inhibitory concentration (IC50) was in the range of 1 to 50 nM.

As to `CN1CCC(NC(=O)c2ccc(Nc3ncc4c(n3)N(C3CCCCC3)CC(F)(F)C(=O)N4C)cc2)CC1` [Example I-262, 4-(9-cyclohexyl-7,7-difluoro-5-methyl-6-oxo-6,7,8,9-tetrahydro-5H-pyrimido[4,5-b][1,4]diazepin-2-ylamino)-N-(1-methyl-piperidin-4-yl)-benzamide], the IC50 lay in the range of 1 to 50 nM.

As for `COc1cc(C(=O)O)ccc1Nc1ncc2c(n1)N(CCc1cccs1)CC(F)(F)C(=O)N2C` [Example I-269, 4-[7,7-difluoro-5-methyl-6-oxo-9-(2-thiophen-2-yl-ethyl)-6,7,8,9-tetrahydro-5-pyrimido[4,5-b]diazepin-2-ylamino]-3-methoxy-benzoic acid], the half-maximal inhibitory concentration (IC50) lay within 51 to 500 nM.

Regarding `CCN1CCC(NC(=O)c2cc(F)c(Nc3ncc4c(n3)N(C3CCCC3)CC(F)(F)C(=O)N4C)cc2F)CC1` [Example I-234, 4-(9-cyclopentyl-7,7-difluoro-5-methyl-6-oxo-6,7,8,9-tetrahydro-5H-pyrimido[4,5-b][1,4]diazepin-2-ylamino)-N-(1-ethyl-piperidin-4-yl)-2,5-difluoro-benzamide], the half-inhibitory concentration (IC50) was in the range of 1 to 50 nM.

`COc1cc(C(N)=O)ccc1Nc1ncc2c(n1)N([C@@H]1C[C@H]1c1ccccc1)CC(F)(F)C(=O)N2C` (relative stereo) [Example I-289, 4-[7,7-difluoro-5-methyl-6-oxo-9-(trans-2-phenyl-cyclopropyl)-6,7,8,9-tetrahydro-5H-pyrimido[4,5-b][1,4]diazepin-2-ylamino]-3-methoxy-benzamide] showed a half-maximal inhibitory concentration (IC50) of over 5000 nM.

The compound `CCOc1cc(C(=O)NC2CCOCC2)ccc1Nc1ncc2c(n1)N(C1CCCC1)CC(F)(F)C(=O)N2C` [Example I-217, 4-(9-cyclopentyl-7,7-difluoro-5-methyl-6-oxo-6,7,8,9-tetrahydro-5H-pyrimido[4,5-b][1,4]diazepin-2-ylamino)-3-ethoxy-N-(tetrahydro-pyran-4-yl)-benzamide] came in with a half-maximal inhibitory concentration (IC50) of 1 to 50 nM.

`CCN1CCC(NC(=O)c2ccc(Nc3ncc4c(n3)N(C3CCCC3)CC(F)(F)C(=O)N4C)c(F)c2F)CC1` [Example I-244]: the concentration for half-maximal inhibition (IC50) fell in the range of 1 to 50 nM.

Compound `COc1cc(C(=O)N[C@H]2CC[C@H](N3CCN(CC4CC4)CC3)CC2)ccc1Nc1ncc2c(n1)N(C(C)C)CC(F)(F)C(=O)N2C` [Example I-302, N-[trans-4-(4-cyclopropylmethyl-piperazin-1-yl)-cyclohexyl]-4-(7,7-difluoro-9-isopropyl-5-methyl-6-oxo-6,7,8,9-tetrahydro-5H-pyrimido[4,5-b][1,4]diazepin-2-ylamino)-3-methoxy-benzamide] registered an IC50 of 1 to 50 nM.

Still in this assay, the particulars now being: GST-PLK1, GST-p53 substrate, ATP.
`CN(C)CCCNC(=O)c1ccc(Nc2ncc3c(n2)N(C2CCCC2)CC(F)(F)C(=O)N3)cc1` [Example I-135, 4-(9-cyclopentyl-7,7-difluoro-6-oxo-6,7,8,9-tetrahydro-5H-pyrimido[4,5-b][1,4]diazepin-2-yl-amino)-N-(3-dimethyl-amino-propyl)-benzamide] displayed a 50% inhibitory concentration (IC50) of 500 to 5000 nM.

On to `COc1cc(C(=O)N[C@@H]2CN(C(=O)OC(C)(C)C)C[C@H]2O)ccc1Nc1ncc2c(n1)N(C1CCCC1)CC(F)(F)C(=O)N2C` [Example I-103, (3R,4R)-3-[4-(9-cyclopentyl-7,7-difluoro-5-methyl-6-oxo-6,7,8,9-tetrahydro-5H-pyrimido[4,5-b][1,4]diazepin-2-ylamino)-3-methoxy-benzoylamino]-4-hydroxy-pyrrolidine-1-carboxylic acid tert-butyl ester], for which the half-inhibitory concentration (IC50) lay in the range of 1 to 50 nM.

`COc1cc(C(=O)NCCN2CCCC2)ccc1Nc1ncc2c(n1)N(C1CCCC1)CC(F)(F)C(=O)N2C` [Example I-45, 4-(9-cyclopentyl-7,7-difluoro-5-methyl-6-oxo-6,7,8,9-tetrahydro-5H-pyrimido[4,5-b][1,4]diazepin-2-ylamino)-3-methoxy-N-(2-pyrrolidin-1-yl-ethyl)-benzamide] returned an IC50 of 1 to 50 nM.

The compound `COc1cc(C(=O)NC2CCN(C)CC2)ccc1Nc1ncc2c(n1)N(C1CCC1)CC(F)(F)C(=O)N2C` [Example I-4, 4-(9-cyclobutyl-7,7-difluoro-5-methyl-6-oxo-6,7,8,9-tetrahydro-5H-pyrimido[4,5-b][1,4]diazepin-2-ylamino)-3-methoxy-N-(1-methyl-piperidin-4-yl)-benzamide] showed an IC50 of 1 to 50 nM.

Turning to `COc1cc(C(=O)NCCCN2CCC(O)CC2)ccc1Nc1ncc2c(n1)N(C1CCCC1)CC(F)(F)C(=O)N2C` [Example I-105, 4-(9-cyclopentyl-7,7-difluoro-5-methyl-6-oxo-6,7,8,9-tetrahydro-5H-pyrimido[4,5-b][1,4]diazepin-2-ylamino)-N-[3-(4-hydroxy-piperidin-1-yl)-propyl]-3-methoxy-benzamide], the IC50 fell in the range of 1 to 50 nM.

In turn, `COc1cc(C(=O)NC(C)c2ccccc2)ccc1Nc1ncc2c(n1)N(C1CCCC1)CC(F)(F)C(=O)N2C` (racemic) [Example I-37, rac-4-(9-cyclopentyl-7,7-difluoro-5-methyl-6-oxo-6,7,8,9-tetrahydro-5H-pyrimido[4,5-b][1,4]diazepin-2-ylamino)-3-methoxy-N-(1-phenyl-ethyl)-benzamide] had a half-maximal inhibitory concentration (IC50) of 51 to 500 nM.

In turn, `COCCCNC(=O)c1ccc(Nc2ncc3c(n2)N(C2CCCC2)CC(F)(F)C(=O)N3C)c(OC)c1` [Example I-29, 4-(9-cyclopentyl-7,7-difluoro-5-methyl-6-oxo-6,7,8,9-tetrahydro-5H-pyrimido[4,5-b][1,4]diazepin-2-ylamino)-3-methoxy-N-(3-methoxy-propyl)-benzamide] showed an IC50 of 1 to 50 nM.

`CCCN1C(=O)C(F)(F)CN(C2CCCC2)c2nc(Nc3ccc(C(=O)NC4CCN(C)CC4)cc3)ncc21` [Example I-147, 4-(9-cyclopentyl-7,7-difluoro-6-oxo-5-propyl-6,7,8,9-tetrahydro-5H-pyrimido[4,5-b][1,4]diazepin-2-ylamino)-N-(1-methyl-piperidin-4-yl)-benzamide]: the half-inhibitory concentration (IC50) fell in the range of 51 to 500 nM.

In turn, `COc1cc(C(=O)NC2CCN(C(C)C)CC2)ccc1Nc1ncc2c(n1)N(C1CCCC1)CC(F)(F)C(=O)N2C` [Example I-64, 4-(9-cyclopentyl-7,7-difluoro-5-methyl-6-oxo-6,7,8,9-tetrahydro-5H-pyrimido[4,5-b][1,4]diazepin-2-ylamino)-N-(1-isopropyl-piperidin-4-yl)-3-methoxy-benzamide] gave an IC50 of 1 to 50 nM.

As usually defined, the IC50 is the midpoint of a concentration-inhibition curve.

The values are drawn from US8003785B2 (Takeda Pharmaceutical Company Limited, priority 2008, dated 2011).
